Reference: paper PMC9000469 (Molecules, 2022)
Where “and” joins values, the source holds several entries; their conditions need not be identical. Equal values may be shown once. Entries after “also recorded” stand apart in the source; their conditions may differ. Where a name gives a salt, the structure may show the parent alone. Read-outs that look alike come from different tables or passages of the source.

Assays:
[1] = design: method as in PMID 25840123; conditions: concentration 5 mM; cited from earlier work
[2] = Permeability across the PermeaPad 96-well plate biomimetic barrier; type: in vitro ADME; conditions: for Effect of medium pH (6.8 versus 7.4) on permeability across the PermeaPad barrier: Student t-test, p > 0.05; for Permeability across the PermeaPad barrier by passive diffusion (in words): pH 6.8 and 7.4; for Papp on the Permeapad membrane: pH not stated in the sentence (equals the pH 7.4 value of Figure 4)
Protocol: The […]® 96-well plate was purchased from InnoME GmbH ([…], Germany). The plate consists of a bottom plate, a screen plate with a lipid barrier and a lid. The surface area for permeation studying is 0.15 cm^2. The permeability tests across a biomimetic barrier of drug substances were performed from the bottom to the top compartment. The compounds were dissolved in PBS with pH 6.8 or 7.4. […] The permeation tests for all compounds were performed at room temperature (25 °C). HPLC methods were used to determine the concentration of the compound transported. The apparent permeability coefficient (Papp) was calculated according to the protocol described by di Cagno et al..

[3] = Physicochemical properties of compounds (pKa, logP); conditions: internal data
Description: PA was obtained from Ethifarm (Ethifarm, Poznan, Poland). Reference substances CAF and NF were obtained from Sigma Aldrich (Merck Group, Darmstadt, Germany).

Caco-2 monolayer [4] = conditions: previously published results, cited from earlier work
[5] = conditions of high temperatures and relative humidity; cited from earlier work
Caco-2 cells = experiment: MTT cytotoxicity assay in Caco-2 cells; conditions: 0.0–2.0 mg/mL, 2 h exposure
Protocol: After leaving them overnight, different concentrations of analyzed substances in HBSS pH 7.4 were added.. Cells were exposed to the substances for 2 h (time of transport across monolayer) in an incubator under optimal culture conditions. After incubation, the solution was removed and the mixture of DMEM cell culture medium and MTT (5 mg/mL) was added. Cells were incubated for 2 h, and then the resulting formazan crystals were dissolved in DMSO. The absorbance was measured using an Elx-800 absorbance microplate reader (Biotek, Winooski, VT, USA) at wavelength 540 nm.

PEPT1 = tested on: PEPT1; design: method as in PMID 19519280; conditions: cited from earlier work
[6] = cited from earlier work
Caco-2 monolayer [7] = conditions: for Papp across Caco-2 monolayer: basolateral to apical, 2 h, pH 7.4, 37 °C, mean ± SD, n = 3
Protocol: For the transport study, the Caco-2 cells were seeded at 4 × 10^5 cells/well on the permeable cell culture inserts with a 0.4 µm pore diameter (Millipore-Merck Group, Darmstadt, Germany) placed in 6-well plates. The cells were cultured for 22 days in the incubator under optimal culture conditions (37 °C, 5% CO2, and 95% air) to their spontaneity differentiating. The integrity of the monolayer was tested by measuring the Trans Epithelial Electrical Resistance (TEER) every 48 h using a Millicel ERS-2 Voltohmmeter (Millipore-Merck Group, Darmstadt, Germany). The cells’ monolayer with an average TEER value > 600 Ohm × cm^2 was considered to be suitable for permeability testing.
The permeability tests across the Caco-2 monolayer of substances were performed from basolateral to the apical compartment (B–A). Plates with cell culture inserts were incubated at 37 °C with shaking at 100 rpm for 2 h. Drug substances were dissolved in the transport buffer solution (HBSS with 25 mM HEPES, pH 7.4) and placed into a donor compartment. The solution volume in the apical and basolateral compartments was maintained at 2 mL and 4 mL, respectively. The samples (150 µL) from the acceptor compartment were taken at 15 min intervals and were replaced with fresh reheated (37 °C) buffer. The HPLC analysis described below was used to determine the concentration of the compound transported. Transport kinetics and the apparent permeability coefficient (Papp) were calculated according to the protocols described by Tavelin et al. and Hubatsch et al..
Concentrations of all compounds transported were determined by the reverse phase HPLC with UV-VIS detection. HPLC analysis was conducted on Waters UPLC Acquity H-class apparatus with Empower 3.0 software (Waters Corporation, Milford, MA, USA). […] The isocratic flow rate was set as 0.6 mL/min and the detection wavelength on λ = 215 nm.

[8] = cited from earlier work; remark: listed apart in the source
PEPT2 = tested on: PEPT2; design: method as in PMID 19519280; conditions: cited from earlier work

For `Cn1c(=O)c2c(ncn2C)n(C)c1=O` [CAF, caffeine], the “Papp in the PermeaPad barrier” value [1] is listed as 240 nm/s, the “Effect of medium pH (6.8 versus 7.4) on permeability across the PermeaPad barrier” value [2] is listed as “no significant difference” and the “Permeability across the PermeaPad barrier by passive diffusion (in words)” value [2] is listed as “highest transport”. The “Permeability across the PermeaPad barrier by passive diffusion (in words)” value ([2]; listed as Caffeine) was “high permeable”.

In the case of `CCN(CC)CCOC(=O)C(Cc1cccc2ccccc12)CC1CCCO1` (stereo not shown) [NF, Naftidrofuryl oxalate], the pKa [3] is given as 4.1, the “Papp through the Caco-2 monolayer” value (Caco-2 monolayer [4]; 0.125 mg/mL) is given as 841 nm/s and the “Papp through the Caco-2 monolayer” value (Caco-2 monolayer [4]; 0.2 mg/mL) is given as 788 nm/s. The “Effect of medium pH (6.8 versus 7.4) on permeability across the PermeaPad barrier” value [2] was “slightly lower permeability of NF in medium at pH 7.4”, the Papp at 4 h ([2]; not told, both 0.2 mg/mL and 0.125 mg/mL, read-out: Papp through the PermeaPad membrane, bound stated for both concentrations) was greater than 100 nm/s and the “Permeability across the PermeaPad barrier by passive diffusion (in words)” value [2] was “relatively high and high”.

For `CCC[C@H](N[C@@H](C)C(=O)N1[C@H](C(=O)O)C[C@@H]2CCCC[C@@H]21)C(=O)OCC.N=C(N)NCCC[C@H](N)C(=O)O` [PA, Perindopril arginine], the “Shelf life and stability of the arginine salt compared with the erbumine salt” value [5] is listed as “greater shelf life and stability”, the “Cytotoxicity to the Caco-2 cell line (MTT)” value (Caco-2 cells) is listed as “not cytotoxic; also recorded: No effect” and the “pKa (strongest acid)” value [3] is listed as 3.17. The “pKa (strongest base)” value [3] was 5.67, the logP ([3]; two values printed per compound without explanation) was 0.65 and 0.56 and the “Interaction with the intestinal peptide transporter PEPT1” value (PEPT1) was “relatively poor interaction”. The “Time to peak plasma concentrations (absorption completed)” value ([6]; after oral administration) was “approximately 1 h”, the Absolute oral bioavailability [6] was 75% and the “Compound Permeability (Caco-2 monolayer)” value (Caco-2 monolayer [7]; 1.0 mg/mL) was “low (when Papp is lower than 1 × 10^−6 cm/s, the substance is considered poorly permeable)”. For the same molecule, the “Papp across Caco-2 monolayer” value (Caco-2 monolayer [7]; 1.0 mg/mL) was 0.72 ± 0.04 × 10^−6 cm/s, the “Papp across Caco-2 monolayer” value (Caco-2 monolayer [7]; 2.0 mg/mL) was 1.94 ± 0.96 × 10^−6 cm/s and the “Permeability (BCS characterisation)” value [8] was “low permeability”. For the same molecule, the “Permeability (characterisation)” value [8] was “low permeability”, the “Interaction with the intestinal peptide transporter PEPT2” value (PEPT2) was “relatively poor interaction” and the “Papp on the Permeapad membrane” value ([2]; 1.0 mg/mL) was 357 nm/s. The “Papp on the Permeapad membrane” value ([2]; 2.0 mg/mL) was 439 nm/s, the “Effect of medium pH (6.8 versus 7.4) on permeability across the PermeaPad barrier” value [2] was “did not affect; also recorded: no significant differences” and the “Permeability across the PermeaPad barrier by passive diffusion (in words)” value [2] was “lowest permeability; also recorded: relatively low permeability”.

In the case of `CCC[C@H](N[C@@H](C)C(=O)N1[C@H](C(=O)O)C[C@@H]2CCCC[C@@H]21)C(=O)O` [Perindoprilat, perindoprilat], the “Average bioavailability of the active metabolite” value ([6]; after oral PA) is given as “about 25%” and the Mean half-life [6] is given as 5 to 11 h.

For `CCC[C@H](N[C@@H](C)C(=O)N1[C@H](C(=O)O)C[C@@H]2CCCC[C@@H]21)C(=O)OCC` [perindopril], the “Fraction metabolized into perindoprilat during the first pass of the liver” value ([6]; oral administration, no ref printed with the sentence) is listed as 30–50%.
